The conditions of data set [1]: enema, 10 to 12 hours post-administration; about two thirds N-acetyl metabolite; cited from earlier work.
For data set [2] the following is noted: in vivo.
Protocol: A population of 15 patients with mild to moderate active left sided ulcerative colitis (DIA 3-10) with mucosal friability were studied.
Patients were given 240 mg of ISIS 2302 enema nightly for six weeks. Endoscopic mucosal biopsy samples were taken at baseline and at the end of therapy. Intensive 24-hour plasma pharmacokinetic (PK) sampling was conducted on all patients after the first and last enema dose for quantitative drug analysis. End of treatment colonic biopsy samples were collected for local quantitative PK evaluation from the descending colon.
PK and clinical data from the first 12 patients were analyzed.
For data set [3], the system named is moderate to severe ulcerative colitis. The data set is described as follows: Subset analysis of patients with moderate to severe disease. As to conditions: moderate to severe subset (n=26). The class given is in vivo, human. As to the method:
An analysis of a subset of the population (n=26) of the study with moderate to severe disease was performed. Moderate to severe disease was defined as patients having the following scores using the DAI criteria: baseline stool frequency ≧2, rectal bleeding ≧2, endoscopy ≧2, and investigator's assessment ≧1.

Data set [4] has as its system chronic, unremitting pouchitis. As to conditions: HPMC enema 240 mg nightly for 6 weeks, twelve patients (p=0.001); cited from earlier work.
The conditions of data set [5]: human, in vivo, iv.
Protocol: This was a double-blind, placebo-controlled, randomized (3:1, drug: placebo) study. Four healthy male volunteers were enrolled in each of seven single dose (0.06, 0.12, 0.24, 0.5, 1.0, 1.5 and 2.0 mg/kg) and multiple dose groups (0.2, 0.5, 1.0 and 2.0 mg/kg every other day for four doses). Groups were studied in a rising-dose fashion, and multiple dosing commenced after the first five single groups had completed the trial. […] Subjects remained recumbent, with continuous ECG monitoring for four hours after the beginning of each infusion. Before and at intervals after each infusion, supine blood pressure and pulse, clotting screen including aPTT, thrombin time, prothrombin time, serum complement split products C3a and C5a, neutrophil count, urine microproteins, and standard laboratory safety screen (hematology, blood biochemistry and urinalysis) were measured.
Complement split products were measured by commercially available C3a and C5a assay kits (Amersham).
Drug analysis was performed by capillary gel electrophoresis (CGE) as described by Leeds et al. (Anal. Biochem., 235:36-43, 1996). A phosphorothioate standard oligonucleotide composed of 27 thymidine nucleotides (T27) was added to both plasma and urine as an internal standard. The linear range of concentrations of oligonucleotides detectable in plasma using this method was 10 nM to 20 μM (approximately 0.07 to 140 μg/ml).
Data set [6] deals with mild to moderate active left sided ulcerative colitis. Put plainly: Open label study CS-28: pharmacological activity of ISIS 2302 enema. The class given is in vivo, human. As to conditions: 240 mg enema nightly for six weeks. The source says: All patients entering the study had moderate to severe mucosal disease at baseline (modified Mayo score, endoscopic appearance component of DAI, of 2 or greater at baseline). […] This was substantially higher than expected.

The subject of data set [7] is mild to moderate active distal ulcerative colitis.
Protocol: The safety and efficacy of four different dosing regimens of ISIS 2302 enema was assessed for the treatment of ulcerative colitis were analyzed in a placebo-controlled, double-blinded Phase 2 study.
Patients were equally randomized into one of five study arms.
240 mg ISIS 2302 nightly for six weeks.
240 mg ISIS 2302 for 10 consecutive nights followed by 240 mg ISIS 2302 every other night for remaining 32 nights.
240 mg of ISIS 2302 every other night for six weeks.
120 mg of ISIS 2302 for 10 consecutive nights followed by 120 mg of ISIS 2302 every other night for the remaining 32 nights.
Placebo enema nightly for six weeks.
All patients received either a placebo enema or ISIS 2302 enema nightly for six weeks. Patients in arms 2 and 4 received placebo enemas on alternate nights when ISIS 2302 was administered on alternate days.
For data set [8] the following is noted: human, in vivo, sc.
For data set [9], the system named is mild to moderate ulcerative colitis. The note with it: 240 mg/day rectally for 28 days; placebo 50%; cited from earlier work.
The test system of data set [10] is Crohn's disease. The note with it: intravenous, cited from earlier work.

Oligonucleotides are written 5' to 3', each unit as a sugar letter and its base; * is a phosphorothioate linkage, no mark a phosphodiester; rarer units and linkages stand in square brackets, end groups in braces. Plain capitals give the bases only. d = 2'-deoxy (DNA)

As to `Nc1ccc(O)c(C(=O)O)c1` [mesalamine], the plasma levels in [1] is 2 µg/mL.
Take “ISIS 2302: 20-base phosphorothioate oligodeoxynucleotide 5′-GCCCAAGCTGGCATCCGTCA-3′ hybridizing to the 3′-untranslated region of human ICAM-1 mRNA (antisense dG*dC*dC*dC*dA*dA*dG*dC*dT*dG*dG*dC*dA*dT*dC*dC*dG*dT*dC*dA)”: in data set [2] (human, 240 mg), the “Maximum plasma concentrations (Cmax)” value was in the range of 2.2 to 38 ng/mL. For the same compound, the “Mean AUC” value in [2] (human, 240 mg) was 0.124 µg·h/mL. The “systemically available share of the administered dose” value in data set [2] is on record as “less than 1%”. Also, the “change in DAI vs baseline and placebo” value in data set [3] (every other night dosing, through week 6) is “significant (p≦0.05) decrease in DAI”; in data set [3] (nightly dosing, through week 18) it was “significant (p≦0.05) decrease in DAI”. In data set [4], the “primary endpoint of reduction of PDAI at week 6” value is recorded as “reached”. Besides, the “n-1, n-2 and n-3 metabolites as share of total oligonucleotide in plasma” value in [5] stood at 20%. In data set [6], the “patients with DAI significantly improved from baseline to week 6” value is given as 9 of 12. In data set [6] (at completion of the study), the “patients with mucosal healing and resolution of friability (modified Mayo score of 0 or 1)” value is recorded as “Seven of 12”. Besides, the “subjects remaining in remission at week 30 of those in remission after 6 weeks” value in [7] (240 mg group, placebo 4 of 9 (p=0.12)) is given as 10 of 13. In [7] (240 mg group, placebo <3 months), the “median duration of response” value is at least 6 months. For the same compound, the “response rate vs placebo” value in data set [7] (240 mg nightly, weeks 18 and 30 (p=0.04 and 0.03)) is “significantly better response rate than placebo”. Moreover, the “stool frequency and rectal bleeding (components of DAI)” value in data set [7] (ISIS 2302 enema treatment) is “durable reduction”. Moreover, the response vs placebo result in data set [7] (the 3 lower dose groups) is “failed to demonstrate statistical improvement over placebo”. The plasma bioavailability result in [8] is recorded as “about 50%”. Further, the “patients requiring additional surgical or medical intervention over baseline during six months” value in data set [9] is on record as “None”. In data set [10] (some subsets of patients), the “efficacy in Phase II studies” value is given as “suggested efficacy”. The “efficacy on clinical remission and disease activity index scores” value in [10] (two Phase III trials, moderate to severe Crohn's disease) is reported as “ineffective”.

The record behind these values is US9050354B2, “Therapeutic antisense oligonucleotide compositions for the treatment of inflammatory bowel disease” (Atlantic Pharmaceuticals (Holdings) Limited, priority 2004, dated 2015).
